Here are results for two compounds from paper PMC7114339 (Antiviral Research, 2020).

Series [1] concerns 5′-terminal hairpin of VP35 (VP35-HP only). Format: cell-based, EBOV.
Series [2] has as its system 5′-UTR of EBOV VP30 mRNA. Format: cell-based.
Series [3] relates to CCHFV. In words: cells. Format: cell-based.
For series [4], the system named is HCoV-229E. The format is cell-based.
In series [5] the test system is persistently HEV-infected A549 cells. In words: Cell viability of persistently HEV-infected A549 cells. The settings on record: 2 nM, 72 h.
Series [6] has as its system HEV. The format is cell-based.
For series [7], the system named is (AC)15 sequence. Format: cell-based.
The test system of series [8] is 5′-UTR of HCoV-229E. Format: cell-based.
The subject of series [9] is LASV. Nature of the series: cells. The format is cell-based.
For series [10], the system named is VP35-HP+(AG)5. Format: cell-based, EBOV.
Series [11] relates to HCoV-229E. Nature of the series: microbe, parasite or virus in culture. The format is cell-based. The settings on record: Human coronavirus 229E, MRC5.
Series [12] concerns (AG)15 construct. Nature of the series: cells. The settings on record: read-out: inhibited translation. Format: cell-based.
For series [13], the system named is tumor growth. The settings on record: xenograft mouse model ref Wolfe et al., 2014; cited from earlier work.
A short description of series [14]: in vitro. The settings on record: human.
The subject of series [15] is HEVgt3c-G4C and HEVgt3c-G4CC6A. Format: cell-based, HEV.
Series [16] has as its system HEVgt3c-Purine 5′-UTR. Format: cell-based, HEV.
The nature of series [17]: Cell toxicity in murine hepatocytes. The settings on record: mouse, murine hepatocytes (mock infected).
Series [18] has as its system 5′-UTR of MERS-CoV. Format: cell-based.
For series [19], the system named is 5′-UTR of EBOV VP35. The format is cell-based.
The subject of series [20] is A549 cells. The settings on record: human.
The test system of series [21] is ZIKV. In words: Antiviral activity in ZIKV-infected A549 cells. The format is cell-based. The settings on record: ZIKV RNA, MOI 0.1, 24 hpi.
Series [22] deals with 5′-UTR of HEV (HEVgt3c). Format: cell-based. The settings on record: 10 nM.
The subject of series [23] is MRC-5 cells.
For series [24] the following is noted: 2014, cited from earlier work.

“Also recorded” adds a separate entry of the source. A value given as a limit tells only on which side of the number the result lay.

For orientation: EC50 means the concentration needed to bring the measured effect to its halfway point.

Take `COC(=O)[C@H]1[C@@H](O)[C@@]2(O)c3c(OC)cc(O[C@@H]4O[C@@H]([C@H](O)CO)CO[C@H]4OC)cc3O[C@@]2(c2ccc(OC)cc2)[C@@H]1c1ccccc1` [Silvestrol]: the entries for the “effect on reporter activity” value in [1] and in series [10] were “sufficient to mediate translation inhibition” and “slightly increased translation inhibition”, respectively. Moreover, the “sensitivity to translation inhibition” value in series [2] was “similarly sensitive”; in series [8], “similarly sensitive”; in [18] it was “similarly sensitive”; in [19], “sensitive”. Also, the “virus titer drop, CCHFV” value in series [3] stood at 3 log. Moreover, the EC50 is 0.0285 µM in series [3] (Mus musculus, Hepatocyte); 0.0507 µM in series [9] (Mus musculus, Hepatocyte); 0.003 µM in series [11]; 0.00108 µM in series [21]. Also, in series [4], the “virus titer in the supernatant reduced by” value is “similar”. In addition, the infectious virus production entry in series [4] (100 nM) is “undetectable levels”. The cytotoxicity result in series [5] was “some cytotoxicity”. In series [6], the “antiviral effect against HEV (extracellular viral RNA levels)” value is given as “confirmed the antiviral activity; also recorded: reduce the levels of extracellular HEV RNA”. Besides, the “induction of luciferase activity” value in series [7] was 1.5 fold. The “virus titer drop, LASV” value in series [9] is on record as ~ 4 log. Further, the inhibition at 0.01 µM in [12] is roughly 55%. In addition, the tumor growth result in series [13] was “reduced tumor growth efficiently”. The figures for the CC50 in series [14], in series [17] and in series [20] were greater than 10 µM, greater than 5 µM and 0.00942 µM, respectively. Besides, in series [15], the inhibitory effect result is recorded as “gradual loss of the inhibitory effect”. Moreover, in series [16], the sensitivity to treatment result is on record as “sensitive”. Further, the luciferase activity entry in series [22] was “reduced luciferase activity”.

For CR-31-B, in series [23], the cytotoxic effects result is listed as “no major cytotoxic effects”. The cytotoxicity result in series [5] is recorded as “not cytotoxic”. Besides, the tumor growth result in series [13] is on record as “reduced tumor growth efficiently”. In series [24] (mice ref Wolfe et al.), the “body weight or the number of blood cells” value is “did not change” and the “toxicity in the gastrointestinal tract” value is on record as “no toxicity could be observed”. In addition, the “serum levels of aminotransferases (ALT and AST), albumin, total bilirubin, creatinine” value in series [24] (two weeks after cessation of treatment ref Wolfe et al.) is reported as “not significantly changed”.
